Laboratory results from patent US5648378A, “2-iminochromene derivatives as inhibitors of protein tyrosine kinase” (Research Corporation Technologies, Inc., priority 1995, dated 1997).
Values after ≈ are worked out from the molar mass of the structure shown. “Also recorded” adds a separate entry of the source.

Columns and labels:
p60^c-src = target: T1, p60^c-src (Homo sapiens, UniProt P12931); test: kinase assay, purified p60c-src, poly [Glu,Tyr](4:1) substrate; type: biochemical; settings: for IC50, p60^c-src: purified kinase, poly [Glu,Tyr](4:1) substrate; for potency relative to the hydroxylated parent compound (in words): hydroxymethyl versus hydroxy N-phenyl analogue
T1 construct: purchased Upstate Biotechnology Inc
T1 sequence (P12931 whole entry): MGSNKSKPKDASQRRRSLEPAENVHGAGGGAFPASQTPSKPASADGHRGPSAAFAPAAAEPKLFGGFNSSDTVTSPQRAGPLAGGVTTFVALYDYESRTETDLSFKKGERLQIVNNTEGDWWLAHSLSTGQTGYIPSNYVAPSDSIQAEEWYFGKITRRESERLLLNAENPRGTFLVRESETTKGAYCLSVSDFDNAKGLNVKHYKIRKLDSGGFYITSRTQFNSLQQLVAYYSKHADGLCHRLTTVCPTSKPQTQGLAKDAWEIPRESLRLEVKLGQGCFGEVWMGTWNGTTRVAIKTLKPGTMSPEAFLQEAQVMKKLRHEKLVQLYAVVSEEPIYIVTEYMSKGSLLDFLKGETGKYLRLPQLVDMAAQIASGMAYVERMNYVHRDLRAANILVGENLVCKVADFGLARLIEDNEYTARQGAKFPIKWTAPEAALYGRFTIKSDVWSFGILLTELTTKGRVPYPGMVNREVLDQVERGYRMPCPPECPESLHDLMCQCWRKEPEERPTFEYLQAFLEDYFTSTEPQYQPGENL
Experimental: (§1) Purified p60^c-scr and Src-family kinases p56^lck, p56^lyn, and p55^fyn were obtained from Upstate Biotechnology Inc. Kinase assays were performed as described by A. Gezit, J. Med.

HL-60 cells = test: cell growth inhibition, HL-60 promyelocytic leukemia; type: cell-based; settings: Homo sapiens, HL-60, 72 h; 3 days, Trypan Blue viable cell count
Experimental: (§2) The source of the cancer cell lines were: HL-60, HT-29, and BT-20, from American Type Culture Collection, Rockville, Maryland; A-1 from Dr. M. H. Freedman, MG-63, from Dr. M. Hurley, and human fibroblast from Dr. R. Zeff. Cells were grown in the culture treated with or without various compounds for 3 days. Cells (except BT-20) were then recovered and treated with Trypan Blue and the number of viable cells counted. For BT-20 cells, a new rapid and simple method using Alamar Blue Assay was used, as described by S. A. Ahmed et al., J. Immunol. Meth., 170, 211 (1994). The symbol i on the Table indicates "not
(§3) As shown on Table 3, several compounds of formula (I) were tested for their ability to inhibit the growth of human cancer cells including promyelocytic leukemia HL-60 cells (S. J. Collins et al., Blood, 70, 1233 (1987)); acute lymphocytic leukemia A-1 cells, (S. Kamel-Reid et al., Leukemia, 6, 8 (1992)); human osteosarcoma MG-63, (A. Pirskanen et al., J. Bone and Mineral Res., 1635 (1994)); human breast carcinoma BT-20 (G. G. Castles et al., Cancer Res., 58, 5934 (1992)); and human colon adenocarcinoma HT-29 cells (R. Garcia et al., Oncogene, 6, 1983 (1991)).

A-1 cells = test: cell growth inhibition, A-1 acute lymphocytic leukemia; type: cell-based; settings: Homo sapiens, 72 h; 3 days, Trypan Blue viable cell count
Experimental: as §2

BT-20 = test: cell growth inhibition, BT-20 breast carcinoma (Alamar Blue); type: cell-based; settings: Homo sapiens, BT-20, 72 h, 3 days, Alamar Blue Assay
Experimental: as §2, §3

[1] = system: human cancer cells (HL-60, A-1, MG-63, BT-20, HT-29); test: inhibition of growth of human cancer cell lines, overall comparison; type: cell-based; settings: 9TA, 18TA compared with e.g. 9TO, 18TO
Experimental: as §2, §3

HT-29 cells = test: cell growth inhibition, HT-29 colon adenocarcinoma; type: cell-based; settings: Homo sapiens, HT-29, 72 h; 3 days, Trypan Blue viable cell count
Experimental: as §2, §3

Human fibroblasts cells = test: cell growth inhibition, human fibroblasts; type: cell-based; settings: for IC50: Homo sapiens, Fibroblast, 72 h, 3 days, Trypan Blue viable cell count
Experimental: as §2

MG-63 = test: cell growth inhibition, MG-63 osteosarcoma; type: cell-based; settings: Homo sapiens, MG-63, 72 h; 3 days, Trypan Blue viable cell count
Experimental: as §2, §3

p56^lyn = target: T2, p56^lyn (Homo sapiens, UniProt P07948); test: kinase assay, p56lyn; type: biochemical; settings: poly [Glu,Tyr](4:1) substrate
T2 construct: purchased Upstate Biotechnology Inc
T2 sequence (P07948 whole entry, species assumed): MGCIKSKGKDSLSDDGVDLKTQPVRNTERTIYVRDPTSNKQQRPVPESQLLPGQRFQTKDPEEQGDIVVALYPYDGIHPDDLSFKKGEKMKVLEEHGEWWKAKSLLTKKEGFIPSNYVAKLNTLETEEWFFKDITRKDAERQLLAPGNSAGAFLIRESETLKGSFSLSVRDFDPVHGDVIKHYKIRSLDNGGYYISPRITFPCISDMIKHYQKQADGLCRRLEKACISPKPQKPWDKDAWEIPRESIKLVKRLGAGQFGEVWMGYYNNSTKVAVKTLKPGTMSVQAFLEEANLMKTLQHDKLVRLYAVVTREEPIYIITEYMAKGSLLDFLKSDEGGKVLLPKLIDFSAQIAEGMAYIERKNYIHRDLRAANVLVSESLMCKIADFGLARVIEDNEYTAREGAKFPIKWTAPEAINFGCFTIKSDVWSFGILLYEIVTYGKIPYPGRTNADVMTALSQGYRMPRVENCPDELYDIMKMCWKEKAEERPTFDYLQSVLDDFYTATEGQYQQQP
Experimental: as §1

p55^fyn = test: kinase assay, p55fyn; type: biochemical; settings: poly [Glu,Tyr](4:1) substrate
Experimental: as §1

p56^lck = target: T3, p56^lck (Homo sapiens, UniProt P06239); test: kinase assay, p56lck; type: biochemical; settings: poly [Glu,Tyr](4:1) substrate
T3 construct: purchased Upstate Biotechnology Inc
T3 sequence (P06239 whole entry, species assumed): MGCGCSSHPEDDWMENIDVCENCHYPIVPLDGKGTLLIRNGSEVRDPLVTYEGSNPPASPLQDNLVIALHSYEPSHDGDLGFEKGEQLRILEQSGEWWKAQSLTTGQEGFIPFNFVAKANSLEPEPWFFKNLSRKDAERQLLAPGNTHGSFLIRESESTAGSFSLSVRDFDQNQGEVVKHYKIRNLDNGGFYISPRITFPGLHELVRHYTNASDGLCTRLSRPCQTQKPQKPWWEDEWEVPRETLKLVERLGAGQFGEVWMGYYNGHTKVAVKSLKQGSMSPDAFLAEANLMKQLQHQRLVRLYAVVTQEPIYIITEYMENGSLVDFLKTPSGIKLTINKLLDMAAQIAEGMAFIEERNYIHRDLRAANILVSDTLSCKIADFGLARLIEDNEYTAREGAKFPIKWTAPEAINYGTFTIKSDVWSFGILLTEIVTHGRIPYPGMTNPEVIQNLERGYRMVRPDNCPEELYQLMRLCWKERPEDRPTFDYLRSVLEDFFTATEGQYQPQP
Experimental: as §1

melanoma = settings: 50 mg/day; Thornes et al. (1994); cited from earlier work

Compound	IC50, p60^c-src (p60^c-src) [µg/mL]	IC50 (HL-60 cells) [µg/mL]	IC50 (A-1 cells) [µg/mL]	IC50 (BT-20) [µg/mL]	IC50 (HT-29 cells) [µg/mL]	IC50, p55^fyn (p55^fyn) [µg/mL]	IC50, p56^lck (p56^lck) [µg/mL]	other results
N=c1oc2cc(O)ccc2cc1C(=O)Nc1ccc(O)cc1 [Compound 8T]	1.2 (≈ 4.05 µM)	5 (≈ 16.9 µM)	5 (≈ 16.9 µM)	14 (≈ 47.3 µM)	–	–	–	–
N=c1oc2ccccc2cc1C(=O)Nc1ccc(O)cc1 [Compound 25T, 3-(N-4-hydroxyphenyl)carbamoyl-2-iminochromene]	–	> 10	–	10 (≈ 35.7 µM)	–	–	–	inhibition of p60^c-src kinase (in words) (p60^c-src): poorly inhibits; also recorded: inactive; inhibition of cancer cell growth (in words) [1]: less active
N=c1oc2cc(O)cc(O)c2cc1C(=O)Nc1ccccc1O [Compound 19TO]	2.1 (≈ 6.72 µM)	5 (≈ 16 µM)	2.5 (≈ 8.01 µM)	> 20	0.625 (≈ 2 µM)	–	–	inhibition of growth of human fibroblast cells (in words) (Human fibroblasts cells): not effective; IC50 (Human fibroblasts cells): > 20 µg/mL; IC50 (MG-63): 2.5 µg/mL (≈ 8.01 µM)
N=c1oc2c(O)c(O)ccc2cc1C(=O)Nc1cccc(CO)c1 [Compound 18TABA]	5 (≈ 15.3 µM)	2.5 (≈ 7.66 µM)	2.5 (≈ 7.66 µM)	–	–	> 20	–	potency relative to the hydroxylated parent compound (in words) (p60^c-src; p60^c-src): not more potent; IC50, p56^lyn (p56^lyn): 20 µg/mL (≈ 61.3 µM)
N=c1oc2c(O)cccc2cc1C(=O)Nc1cccc(CO)c1 [Compound 9TABA]	2.5 (≈ 8.06 µM)	–	11 (≈ 35.4 µM)	–	–	3 (≈ 9.67 µM)	–	potency relative to the hydroxylated parent compound (in words) (p60^c-src; p60^c-src): not more potent; IC50 (p56^lck): 64.5 µM; IC50 (MG-63): > 20 µg/mL
N=c1oc2c(O)c(O)ccc2cc1C(=O)Nc1ccccc1O [Compound 18TO]	12 (≈ 38.4 µM)	2 (≈ 6.4 µM)	2 (≈ 6.4 µM)	–	15 (≈ 48 µM)	> 20	20 (≈ 64 µM)	inhibition of p60^c-src kinase (in words) (p60^c-src): relatively weak activity
N=c1oc2cc(O)cc(O)c2cc1C(=O)Nc1cccc(O)c1 [Compound 19TA]	1.25 (≈ 4 µM)	2.5 (≈ 8.01 µM)	15 (≈ 48 µM)	> 20	10 (≈ 32 µM)	–	3.75 (≈ 12 µM)	IC50, p56^lyn (p56^lyn): 5 µg/mL (≈ 16 µM); inhibition of growth of human fibroblast cells (in words) (Human fibroblasts cells): not effective; IC50 (Human fibroblasts cells): > 20 µg/mL; IC50 (MG-63): 5 µg/mL (≈ 16 µM)
N=c1oc2cc(O)cc(O)c2cc1C(=O)Nc1ccc(O)cc1 [Compound 19T]	0.2 (≈ 0.64 µM)	1 (≈ 3.2 µM)	1 (≈ 3.2 µM)	–	2.5 (≈ 8.01 µM)	–	2 (≈ 6.4 µM)	fold more potent than the parent compound 25T (p60^c-src; p60^c-src, versus 25T): 200 fold; IC50, p56^lyn (p56^lyn): 5 µg/mL (≈ 16 µM); inhibition of growth of human fibroblast cells (in words) (Human fibroblasts cells): not effective; IC50 (Human fibroblasts cells): > 20 µg/mL
N=c1oc2c(O)cccc2cc1C(=O)Nc1ccccc1O [Compound 9TO]	–	1.5 (≈ 5.06 µM)	1.9 (≈ 6.41 µM)	–	4 (≈ 13.5 µM)	> 20	1.2 (≈ 4.05 µM)	inhibition of p60^c-src kinase (in words) (p60^c-src): relatively weak activity
N=c1oc2c(O)c(O)ccc2cc1C(=O)Nc1ccccc1 [Compound 18AN]	–	> 20	17 (≈ 57.4 µM)	–	–	> 20	–	inhibition of p60^c-src kinase (in words) (p60^c-src): inactive; inhibition of cancer cell growth (in words) [1]: less active
CC(=O)c1cccc(NC(=O)c2cc3ccc(O)c(O)c3oc2=N)c1 [Compound 18ACTA]	3 (≈ 8.87 µM)	–	15 (≈ 44.3 µM)	–	–	–	–	IC50, p56^lyn (p56^lyn): 10 µg/mL (≈ 29.6 µM)
N=c1oc2c(O)cccc2cc1C(=O)Nc1ccc(O)cc1 [Compound 9T]	–	2.5 (≈ 8.44 µM)	–	7 (≈ 23.6 µM)	4 (≈ 13.5 µM)	> 20	0.62 (≈ 2.09 µM)	IC50, p56^lyn (p56^lyn): 20 µg/mL (≈ 67.5 µM); IC50 (MG-63): 1.25 µg/mL (≈ 4.22 µM)
COc1ccc2oc(=N)c(C(=O)Nc3ccc(O)cc3)cc2c1 [Compound 16T]	12.5 (≈ 40.3 µM)	5 (≈ 16.1 µM)	–	> 20	–	–	7.5 (≈ 24.2 µM)	fold less active than 7T (p60^c-src; p60^c-src, versus 7T): 4 fold
N=c1oc2c(O)c(O)ccc2cc1C(=O)Nc1ccc(O)cc1 [Compound 18T]	3.6 (≈ 11.5 µM)	3.5 (≈ 11.2 µM)	8 (≈ 25.6 µM)	7.2 (≈ 23.1 µM)	20 (≈ 64 µM)	> 20	5 (≈ 16 µM)	–
N=c1oc2cc(O)ccc2cc1C(=O)Nc1cccc(O)c1 [Compound 8TA]	9 (≈ 30.4 µM)	3.3 (≈ 11.1 µM)	–	–	–	–	–	IC50 (p56^lyn): > 33.8 µM
N=c1oc2c(O)c(O)ccc2cc1C(=O)Nc1ccccc1CO [Compound 18TOBA]	0.9 (≈ 2.76 µM)	6 (≈ 18.4 µM)	> 20	–	–	> 20	5 (≈ 15.3 µM)	potency relative to the hydroxylated parent compound (in words) (p60^c-src; p60^c-src): much more potent
N=c1oc2ccccc2cc1C(=O)Nc1cccc(O)c1 [Compound 25TA]	10 (≈ 35.7 µM)	–	–	–	–	–	–	–
N=c1oc2c(O)cccc2cc1C(=O)Nc1ccccc1CO [Compound 9TOBA]	1.8 (≈ 5.8 µM)	6 (≈ 19.3 µM)	–	–	–	–	–	potency relative to the hydroxylated parent compound (in words) (p60^c-src; p60^c-src): much more potent; IC50 (MG-63): 5 µg/mL (≈ 16.1 µM)
COc1ccc2cc(C(=O)Nc3ccc(O)cc3)c(=N)oc2c1 [Compound 15T]	–	7.5 (≈ 24.2 µM)	–	> 20	–	–	–	fold less active than 8T (p60^c-src; p60^c-src, versus 8T): 8 fold
N=c1oc2c(O)cccc2cc1C(=O)Nc1cccc(O)c1 [Compound 9TA]	0.035 (≈ 0.118 µM)	10 (≈ 33.8 µM)	6 (≈ 20.3 µM)	–	20 (≈ 67.5 µM)	–	0.62 (≈ 2.09 µM)	inhibition of p60^c-src kinase (in words) (p60^c-src): strong inhibitory effect; inhibition of cancer cell growth (in words) [1]: not as potent
COc1cccc2cc(C(=O)Nc3cccc(O)c3)c(=N)oc12 [Compound 32TA]	1.3 (≈ 4.19 µM)	–	12 (≈ 38.7 µM)	–	–	–	–	–
N=c1oc2ccc(O)cc2cc1C(=O)Nc1cccc(O)c1 [Compound 7TA]	1.3 (≈ 4.39 µM)	6.5 (≈ 21.9 µM)	4.5 (≈ 15.2 µM)	–	–	–	–	IC50 (p56^lyn): > 33.8 µM
O=c1ccc2ccccc2o1 [coumarin]	–	–	–	–	–	–	–	effect against melanoma (in words) (melanoma): effective against melanoma
N=c1oc2ccc(O)cc2cc1C(=O)Nc1ccc(O)cc1 [Compound 7T]	3.2 (≈ 10.8 µM)	4.2 (≈ 14.2 µM)	3 (≈ 10.1 µM)	4.5 (≈ 15.2 µM)	–	–	–	–
N=c1oc2cc(O)ccc2cc1C(=O)Nc1ccccc1O [Compound 8TO]	0.6 (≈ 2.03 µM)	8 (≈ 27 µM)	–	–	–	–	–	–
N=c1oc2c(O)c(O)ccc2cc1C(=O)Nc1cccc(O)c1 [Compound 18TA]	0.225 (≈ 0.721 µM)	9 (≈ 28.8 µM)	20 (≈ 64 µM)	–	> 20	> 20	20 (≈ 64 µM)	inhibition of p60^c-src kinase (in words) (p60^c-src): strong inhibitory effect; fold more potent than 18AN (p60^c-src; p60^c-src, versus 18AN): 88 fold; IC50, p56^lyn (p56^lyn): 18 µg/mL (≈ 57.6 µM); inhibition of cancer cell growth (in words) [1]: not as potent
